Source: patent publication US20130245598A1, “PHOTOACTIVE VITAMIN NANOPARTICLES FOR THE TREATMENT OF CHRONIC WOUNDS” (priority 2010, published 2013)
Converted amounts (≈) assume the structure as drawn.

Assays:
DNA = DNA binding constant
plasmid DNA = experiment: Photocleavage of plasmid DNA (ethidium bromide stained agarose gel); format: biochemical; details: irradiation with visible light (λ>395 nm); 120 μM plasmid DNA; 25 and 50 μM riboflavin; 30 min incubation, 30 min irradiation
From the text: From the left: Lane 1: DNA only, dark. Lane 2: DNA only, irradiated.

[1] = Singlet oxygen study using ADPA as singlet oxygen sensor; format: physicochemical; details: after 15 minutes of irradiation
Water solubility = format: physicochemical
[2] = cited from earlier work
E. coli = experiment: microbe, parasite or virus in culture; details: Escherichia coli, light or radiation study, read-out: LD50 E. coli Irradiated
[3] = cited from the MSDS; cited from earlier work

From the text for Human Skin: Toxicity of the formulations towards human skin cells is examined by previously published methods.

| Structure (SMILES) | DNA binding constant Kb (DNA) | Photocleavage of plasmid DNA from Form I (supercoiled) to Form II (nicked) (plasmid DNA) | Production of singlet oxygen [1] | concentration showing precipitation in water (Water solubility) [μm] | water solubility [2] | LD50 (E. coli) [mg/kg] | LD50 Human Skin Dark (Human Skin; dark) | LD50 Human Skin Irradiated (Human Skin; irradiated) | LD50 Acute Oral Toxicity [3] |
| --- | --- | --- | --- | --- | --- | --- | --- | --- | --- |
| Cc1cc2nc3c(=O)[nH]c(=O)nc-3n(C[C@H](O)[C@H](O)[C@H](O)CO)c2cc1C [Riboflavin, 7,8-dimethyl-10-ribityl-isoalloxazine] | > 10^4 M^−1 | can cleave DNA | capable of producing a large quantity of singlet oxygen | 250 | 100 µg/mL (≈ 266 µM) | 85 |  |  |  |
| CC1=C(C/C=C(\C)CCC[C@H](C)CCC[C@H](C)CCCC(C)C)C(=O)c2ccccc2C1=O [Phylloquinone, phylloquinone] |  |  |  |  | does not dissolve in water |  | No Effect | 18,779 mg/Kg | 25,000 mg/Kg |
